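48-hour exposure; five concentrations; linearly interpolated endpoints. Here, GI50 denotes the concentration required for 50% inhibition of growth. Definition used: TGI = concentration required for complete inhibition of growth.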
Legend:
Assay in all cases: inhibition of tumour cell growth, NCI panel, 48 h
786-0 renal = test system: 786-0 renal
ACHN renal = test system: ACHN renal
CAKI-1 renal = test system: CAKI-1 renal
HOP-62 NSCLC = test system: HOP-62 NSCLC
LOX IMVI melanoma = test system: LOX IMVI melanoma
NCI-H226 lung = test system: NCI-H226 lung
OVCAR-5 ovarian = test system: OVCAR-5 ovarian
SF-539 CNS = test system: SF-539 CNS
SK-MEL-5 melanoma = test system: SK-MEL-5 melanoma
SNB-75 CNS = test system: SNB-75 CNS

Row | SMILES | GI50 (786-0 renal) [µM] | TGI (786-0 renal) [µM] | GI50 (ACHN renal) [µM] | TGI (ACHN renal) [µM] | GI50 (CAKI-1 renal) [µM] | TGI (CAKI-1 renal) [µM] | GI50 (HOP-62 NSCLC) [µM] | TGI (HOP-62 NSCLC) [µM] | GI50 (LOX IMVI melanoma) [µM] | TGI (LOX IMVI melanoma) [µM] | GI50 (NCI-H226 lung) [µM] | TGI (NCI-H226 lung) [µM] | GI50 (OVCAR-5 ovarian) [µM] | TGI (OVCAR-5 ovarian) [µM] | GI50 (SF-539 CNS) [µM] | TGI (SF-539 CNS) [µM] | GI50 (SK-MEL-5 melanoma) [µM] | TGI (SK-MEL-5 melanoma) [µM] | GI50 (SNB-75 CNS) [µM] | TGI (SNB-75 CNS) [µM]
1 | COC(=O)c1oc2c(C(=O)/C=C/c3ccc(OC)cc3)c(OCCCN3CCCCC3)ccc2c1C | 1.49 | 3.11 | 1.03 | 2.54 | 2.09 | 4.96 | 1.67 | 3.48 | 1.45 | 2.82 | 2.32 | 6.38 | 2.31 | 6.17 | 1.45 | 2.91 | 1.72 | 3.17 | 1.89 | 6.37
2 | CN(C)/[N+]([O-])=N/Oc1cc(Nc2ccc(C(=O)O)cc2)c([N+](=O)[O-])cc1[N+](=O)[O-] | 22.2 | 55.3 | 26.7 | 62.4 | 22.1 | 51.7 | 18 | 35 | 19 | 33.6 | 27.4 | 70.4 | 38.5 | > 100 | 23.5 | 53.6 | 20.2 | 41.3 | 25.7 | 52.1
3 | O=[N+]([O-])c1ccc2[nH]cc(-c3c4ccccc4cc4[nH]c5ccc([N+](=O)[O-])cc5c34)c2c1 | 1.94 | 4.09 | 2.42 | 6.97 | 1.8 | 3.64 | 2.54 | 7.25 | 1.92 | 4.14 | 2.2 | 5.8 | 2.21 | 5.94 | 2 | 4.98 | 1.62 | 2.98 | 1.84 | 5.93
4 | COC(=O)C1Cc2c([nH]c3ccccc23)C=N1 (stereo not given) |  | > 100 |  | > 100 |  | > 100 |  | > 100 |  | > 100 |  | > 100 |  | > 100 |  | > 100 |  | > 100 |  | > 100
5 | Cc1cccc(C)c1NC(=O)C(=O)C1C(=O)N(c2ccccc2)N=C1N (stereo not given) |  | > 100 |  | > 100 |  | > 100 |  | > 100 |  | > 100 |  | > 100 |  | > 100 |  | > 100 |  | > 100 |  | > 100
6 | COc1cc2c(/C=C3\C(=O)Nc4ccc(Br)cc43)c(Cl)n(C)c2cc1C | 0.998 | 3.94 | 2.26 | 11.2 | 2.26 | 7.3 | 0.813 | 4.47 | 1.44 | 6.7 | 1.88 | 6.18 | 4.11 | 15.9 | 1 | 4.71 | 1.41 | 2.99 | 1.82 | > 25.7
7 | O=C(CC1C(=O)Nc2ccccc2S1=O)Nc1cccc(Cl)c1 (stereo not given) |  | > 100 |  | > 100 |  | 55.3 |  | > 77.6 |  | > 100 |  | > 76.4 |  | > 100 |  | 43.7 |  | > 46.1 |  | 64.1
8 | COC(=O)c1ccc2c(c1)nc(-c1ccc(Cl)cc1)n2-c1cc(C(C)(C)C)[nH]n1 | 3.62 | 32 | 3 | 9.34 | 2.25 | 12.8 | 3.41 | 21 | 3.7 | 14.5 | 4.09 | 44 | 12.9 | 60.1 | 2.54 | 8.95 | 2.02 | 5.1 | 2.14 | 12.6
9 | CC(C)(C)NNc1c([N+](=O)[O-])cnn(-c2ccccc2)c1=O |  | 13.4 |  | 16.4 |  | 21.1 |  | 22.3 |  | 3.32 |  | 14.7 |  | 15.5 |  | 27.1 |  | 11.1 |  | 23.8
10 | COc1ccccc1Nc1nc(-c2cc3cccc(C(F)(F)F)c3oc2=O)cs1 | 0.218 | > 42.9 | 0.106 | > 100 | 0.142 | > 100 | 0.134 | 29.7 | 0.14 | > 82.2 | 0.601 | 56.3 | 0.572 | > 100 | 0.043 | 0.199 | 0.169 | 0.627 | 0.0305 | 16.7
11 | COc1cc(/C=C/C(=O)c2ccc(Nc3nc(Nc4ccc(F)cc4)nc(Nc4ccc(F)cc4)n3)cc2)cc(OC)c1OC | 2.66 | 12 | 21.2 | > 100 | > 100 | > 100 | 5.26 | > 100 | 6.73 | > 100 | 3.8 | 29.3 | 20.5 | > 100 | 11.8 | > 100 | 3.4 | 30.4 | > 100 | > 100
